Assay results reported in patent publication US9775844B2, “Heterocyclic compounds and uses thereof” (Infinity Pharmaceuticals, Inc., priority 2014, dated 2017).
pIC50: −log10 of the molar value. Where two headings read alike, the source gives them in different places.

Assays:
Farage cell line = assay: Combination isobologram in Farage cell line; assay type: cell-based; conditions: combination of Compound AA and Compound BB
LLC tumor = LLC tumor brei model; assay type: in vivo
[1] = system: M2 macrophage markers VEGF and ARG-1; assay: M2 macrophage marker expression with or without PDL-1 antibody (FIG. 42)
Oral exposure in the rat = assay type: in vivo
Oral exposure in the dog = assay type: in vivo
[2] = Dose-exposure proportionality; conditions: in vivo
phospho-AKT in monocytes = assay: Ex vivo whole blood stimulation of phospho-AKT in monocytes of LLC-bearing mice; conditions: LLC-bearing mice treated with compound
[3] = Oral PK in the rat LPS studies (free plasma concentration); assay type: in vivo; conditions: plasma, read-out: Free Plasma Conc
Procedure: This study also includes assessment of the exposure to the compounds in plasma and lung tissues.
Ref C is budesonide p.o. The compound was administered p.o. and about 1 hour later, LPS was administered intra-tracheally and plasma was collected. After about 5 hours, plasma and bronchoalveolar lavage samples were collected.

[4] = system: M1 macrophage differentiation; assay: M1 macrophage differentiation; assay type: cell-based
Procedure: A similar experiment was performed on M1 differentiation.

LLC tumor brei = assay: Lewis Lung Carcinoma (LLC tumor brei) model; assay type: in vivo, mouse; conditions: single agent, FIG. 25A/25B
Procedure: Compound BB was tested in the Lewis Lung Carcinoma model, which is known in the art and briefly described hereinabove.
LLC tumor brei model was prepared and injected subcutaneously into a mouse in the hind flank region. The tumor brei was prepared as follows. LL2-Luc tumor cells were grown in culture in DMEM+10% FBS. Cells were implanted @ 1×10^6 cells/100 uL SC in the flank of C57 Albino mice (male) When tumors reached 1000 mm3, tumors were harvested. Only the white, living tissue was harvested. Any material containing visable blood or necrotic area was isolated away from the tumor tissue. Tumor tissue was placed in a Dounce tissue homoginized with 5 mLs of warm DMEM (no FBS). About 1-2 grams of tumor tissue was collected, homogenized, pooled into 50 mL falcon tube, and cells were counted. Cells were spinned @ 12,000 RPM, and FBS was pooled off. Cells were resuspended to equal 1×10^7 cells/mL with sterile PBS. 100 uL of cells/mouse SC at the hind flank region were implanted. This process was repeated one more time before conducting brei tumor efficacy study.

[5] = system: tumor-associated myeloid cells in LLC tumor brei; assay: Flow cytometry of tumor-associated myeloid cells, LLC tumor brei model; assay type: in vivo, mouse
Procedure: (§1) Flow cytometry was performed to obtain a more extensive cellular subset analysis. In particular, the study examined T cell vs. Myeloid cells, Myeloid cell subsets, Regulatory vs. effector T cells, and Tumor markers vs. WBC (e.g., PD-L1 expression on tumor).
(§2) Different populations of tumor-associated myeloid cells can be identified by flow cytometry, e.g., monocytic immature myeloid cells (iMC),Granulocytic iMCs/Neutrophils, Tumor Associated Macrophages (TAMs), and Granulocytic MDSCs. The different populations, and panels for detecting MDSCs, are described in Cancer Discovery 2011; 1:54-67. Tumors may vary in their myeloid cell composition.

[6] = system: monocytic iMCs in CT26 subcutaneous tumors; assay: Flow cytometry of tumor-associated myeloid cells, CT26 subcutaneous tumors; assay type: in vivo, mouse; conditions: FIG. 38B
Procedure: as §1, §2

[7] = system: Cytochrome P450 isoforms (all main CYPs); assay: Cytochrome P450 inhibition; assay type: in vitro ADME; conditions: reversible inhibition, all Cyps; read-out: Rev Cyp Inhibition IC50
Source text: These properties indicate the compound's suitability for in vivo administration.

GL261-Luc = GL261-Luc murine glioblastoma subcutaneous model; assay type: in vivo, mouse; conditions: 15 mg/kg QD, PO
GL-261 = GL-261 glioma model with or without temozolomide; assay type: in vivo, mouse
Procedure: TMZ was dosed IP 1×/day for 7 days.
Animals: C57 Albino mice (male) from Jackson Labs, n=80. Parameters Evaluated:
In life: Mice were dosed QD with Compound BB. Temozolomide was dosed QD IP, for 7 days. Tumor measurements and bodyweights were taken 2×/week, but caliper and xenogen measurements.
End point analysis: Tumors were cut in half. One half was cut in half again with 1/2 fixed in 10% NBF the other was frozen in OCT for frozen sections. The remaining half was processed to single cell suspention and evaluated by FACS.
PD satilite group—8 mice from the TMZ treated mice and 8 mice from the vehicle treated mice were sacrificed on day 7 post treatment. Tumors were processed to single cell suspention and evaluated by FACS.

[8] = system: CXCL12 stimulated pAKT in T cells and monocytes; assay: Ex vivo whole blood CXCL12 stimulation of phospho-AKT, LLC-bearing mice; assay type: in vivo, mouse; conditions: 12 days QD PO, 2 h post dose
Procedure: C57 BL/6 Albino mice were implanted with 1×10^6 cells in a SC injection in the hind flank. The cell implant material was generated from brei that was passaged from mouse to mouse. Treatment started when tumors were between 160-180 mm^3 Mice were dosed for 12 days, QD, PO with vehicle, 15, 7.5 or 3 mg/kg. On day 12 mice were dosed and terminal blood was collected 2 h post dose by cardiac stick collection. Blood was placed in EDTA K2 collection tube and stored at room temp for PD analysis.
Blood from each animal was aliquotted into 2 plates and warmed to 37° C. degrees. PBS was added to one plate as an unstimulated control. Murine CXCL12/SDF-1 was added to the second plate to a final concentration of 800 ng/mL and plate was returned to the 37° C. degree block. After 2 minutes of incubation, blood was lysed and fixed using paraformaldehyde. Samples were washed and frozen until flow cytometric analysis. T cells were gated using an antibody to CD3 and monocytes were gated as LY6G^− LY6C^high. Intracellular pAKT […] was measured and percent positive was used for graphing.

[9] = Hepatocyte stability (Hep t1/2); assay type: in vitro ADME; conditions: hepatocytes, all species (incl rat); read-out: M, C, D, H Hep (t1/2, min)
GSH Adduct Formation = assay type: in vitro ADME
human hepatocytes = assay: Human hep viability; assay type: cell-based; conditions: Hepatocyte

C[C@H](NC(=O)c1c(N)nn2cccnc12)c1cc2cccc(C#Cc3cnn(C)c3)c2c(=O)n1-c1ccccc1 [Compound BB]
combination effect (isobologram) (Farage cell line): synergistic effect | CD206+M2 polarized suppressive macrophages (LLC tumor): reduces | TAMs (LLC tumor): decreased | M2 macrophage marker ARG-1 [1]: reduced | M2 macrophage marker VEGF [1]: reduced | oral exposure (Oral exposure in the rat): high | oral exposure (Oral exposure in the dog): high | dose-exposure proportionality [2]: exhibits dose-exposure proportionality | ex vivo whole blood stimulation of phospho-AKT in monocytes (phospho-AKT in monocytes): inhibits | concentration at 1.5 h ([3]; oral, p.o. 0.5 mg/kg, 1.5h (time of LPS challenge)): 2.1 nM | concentration at […] ([3]; oral, p.o. 0.5 mg/kg, 5.5h (approximately 4 hours post LPS challenge)): 2.6 nM | concentration at 1.5 h ([3]; po, p.o. 1.5 mg/kg, 1.5h): 5.2 nM | concentration at […] ([3]; po, p.o. 1.5 mg/kg, 5.5h): 5.4 nM | concentration at 1.5 h ([3]; po, p.o. 5 mg/kg, 1.5h): 22.6 nM | concentration at […] ([3]; po, p.o. 5 mg/kg, 5.5h): 24.7 nM | M1 macrophage differentiation [4]: did not have an observable effect | tumor growth, Lewis Lung Carcinoma model (LLC tumor brei): single agent activity | number of infiltrating TAMs ([5]; FIG. 38A): decreased | CD206 staining (M2 polarized suppressive macrophages) ([5]; FIG. 39): reduced | monocytic iMCs [6]: decreased | pIC50 [7]: < 5.00 | total flux, GL-261 syngeneic glioma model (GL261-Luc): reduced the total flux | tumor volume, GL-261 syngeneic glioma model (GL261-Luc): reduced tumor volume | tumor volume, GL-261, compared to vehicle (GL-261; 15 mg/kg QD PO following TMZ @ 1 mg/kg): significant reduction in tumor volume | tumor volume, GL-261, compared to vehicle (GL-261; treated from the start of treatment, 15 mg/kg QD PO): significant reduction in tumor volume | ex vivo whole blood CXCL12 stimulation of phospho-AKT in T cells [8]: inhibits | ex vivo whole blood CXCL12 stimulation of phospho-AKT in monocytes [8]: inhibits | half-life [9]: > 240 min | GSH Adduct Formation (GSH Adduct Formation): Neg | pIC50 (human hepatocytes): 4.60 to 5.00
